Laboratory results taken from PMC5785774 (ACS Central Science, 2018).
pKd: −log10 of the molar value.

Biological target: PKCδ-C1b (Mus musculus, UniProt P28867)
Test: Kd measured in the peptide-phospholipid composition used for NMR
Type: binding

Chain of PKCδ-C1b (P28867 231-281 limits assumed): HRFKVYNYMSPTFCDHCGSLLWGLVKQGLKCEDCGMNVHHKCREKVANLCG

## CCCC(=O)O[C@@H]1[C@@H](C)[C@@]2(O)[C@@H](C=C(CO)C[C@]3(O)C(=O)C(C)=C[C@@H]23)[C@@H]2C(C)(C)[C@]12OC(=O)CCC [phorbol 12,13-dibutyrate]
  pKd: 8.82
